Patent publication US6313094A, “β-amino-α-hydroxycarboxylic acid derivatives and HIV protease inhibitors” (priority 1990, dated 2001)
*1 amine or outer side, *2 acyl side, *3 side chain or, on linkers, in order; H or OH if unused. Where a SMILES comes first, the peptide text is derived from it. [ ]: non-standard residue; d: D form. The star is where a group is joined. X1 = O=C([C@@H](O)[C@H](Cc1ccccc1)N[*:1])[*:2]; PhAc = O=C(Cc1ccccc1)*

These compounds were tested against T1, chemically synthesized HIV protease (Human immunodeficiency virus type 1 group M subtype B, UniProt P12497, C555A/C583A). Details: expected; compound only said to be preparable.
T1 construct: The HIV protease was chemically synthesized; made in house; host or cells: chemical (peptide) synthesis, no expression host
Format: biochemical
Description: (§1) The HIV protease was chemically synthesized by replacement of two cysteine residues in the natural sequence [Science, 230, 949 (1985)] with alanine residues. The reaction mixture contained 100 mM MES buffer (pH 5.5), 40 mM of substrate (Ac-[…]NH, trifluoroacetate), inhibitors at varying concentrations dissolved in DMSO and 9.2 μg of the HIV protease in a total volume of 15 μl. Incubation was carried out at 37° C. for 60 min. The reaction was started by the addition of the enzyme and terminated by 15 μl of acetonitrile. The amount of a fragment peptide produced was measured by reversed-phase HPLC analysis using an internal standerd. The HPLC condition was as followes.
Solvent A: 0.1% trifluoroacetic acid aqueous solution
Gradient: B was increased in 1.0%/min from 100% of A,

Row | Compound | inhibitory activity against the HIV protease
1 | 5Isoquinoline-O--CH2 CO-Asn-(2S,3S)-AHPBA-Thz-NH-tBu [Example 192] | high inhibitory activity

Same assay, conditions: inhibitor 50 nM

Row | Compound | Residual Activity (%)
2 | PhCH2 -O--CO-Asn-(2S,3S)-AHPBA-(L)-Tic-NH-tBu [Example 102] | 89.2
3 | PhCH2 -O--CO-Asn-(2S,3S)-AHPBA-(D)-Tic-NH-tBu [Example 103] | 91.4
4 | 2-Naphthoxyacetyl-Msa-(2S,3S)-AHPBA-Pro-NH-tBu [Example 131] | 28.8
5 | 1-Naphthoxyacetyl-Ile-(2S,3S)-AHPBA-Thz-NH-tBu [Example 161] | 7.0
6 | 1-Napthoxyacetyl-Sma-(2S,3S)-AHPBA-Pro-NH-tBu [Example 98] | 70.5
7 | 1-Naphthoxyacetyl-Mta-(2S,3S)-AHPBA-Thz-NH-tBu [Example 162] | 2.9
8 | Benzyloxycarbonyl-Asn-(2S3S)-AHPBA-Pro-NHsBu [Example 176] | 82.6
9 | 1-NaPhthoxyacetyl-Prg-(2S,3S)-AHPBA-Thz-NH-tBu [Example 180] | 26.0
10 | 1-Naphtboxyacetyl-Msv-(2S,3S)-AHPBA-Thz-NH-tBu [Example 155] | 7.3
11 | Benzyloxycarbonyl-Asn-(2S,3S)-AHPBA-Pro-NH--C(CH3)2 --CH2 OH [Example 99] | 62.2
12 | Benzyloxycarbonyl-Asn-(2S,3S)-AHPBA-Cpp-NH-tBu [Example 185] | 96.0
13 | Bis(4-chlorophenyl)methyloxyacetyl-Asn-(2S,3S)-AHPBA-Pro-NH-tBu [Example 94] | 37.0
14 | 1-Isoquinolinecarbonyl-Asn-(2S,3S)-AHPBA-Pro-NH-tBu [Example 140] | 72.8
15 | 2-Quinolinecarbonyl-Asn-(2S,3S)-AHPBA-Dtc-NH-tBu [Example 118] | 1.8
16 | Benzyloxycarbonyl-Asn-(2S,3S)-AHPBA-Dtc-NH-tBu [Example 104] | 3.8
17 | 1-Naphthoxyacetyl-Mtv-(2S,3S)-AHPBA-Thz-NH-tBu [Example 154] | 35.4
18 | 1-Naphthoxyacetyl-Msa-(2S,3S)-AHPBA-Dmp-NH-tBu [Example 183] | 4.3
19 | Benzyloxycarbonyt-Asn-(2S,3S)-AHPBA-Ccp-NH-tBu [Example 187] | 99.0
20 | 1-Naphthoxyacetyl-Msa-(2S,3S)-AHPBA-Thz-Pip-O--CH3 [Example 159] | 90.8

Same assay, conditions: inhibitor 5 μM (final concentration)

Row | Compound | Residual Activity (%)
21 | Benzyloxycarbonyl-Asn-(2S,3S)-AHPBA-(D)-Pip-NH-tBu [Example 79] | 84.0
22 | Benzyloxycarbonyl-Val-(2R,3S)-AHPBA-Phe-NH--CH2 --CH(CH3)2 [Example 54] | 84.9
23 | Boc-Sma-(2S,3S)-AHPBA-Pro-NH-tBu [Example 97] | 92.9
24 | 3-Phenylpropionyl-Smc(O)-(2S,3S)-AHPBA-Pro-Ile-Val-NH2 [Example 61] | 90.9
25 | Benzyloxycarbonyl-Asn-(2S,3S)-AHPBA-Pro-NH-cycloropyl [Example 88] | < 10
26 | 3-Phenylpropionyl-Msa-(2S,3S)-AHPBA-Pro-Ile-Val-NH2 [Example 62] | 3.2
27 | Benzyloxycarbonyl-Asn-(2S,3S)-AHPBA-Pro-NH--CH(C2 H5)2 [Example 89] | < 10
28 | Furancarbonyl-Asn-(2S,3S)-AHPBA-Pro-Ile-Val-NH2 [Example 65] | 9.3
29 | Benzyloxycarbonyl-Asn-(2S,3S)-AHPBA-Pro-NH--CH2 --C(CH3)3 [Example 83] | 12.4
30 | CC(C)NC(=O)[C@@H]1CCCN1C(=O)[C@@H](O)[C@H](Cc1ccccc1)NC(=O)[C@H](CC(N)=O)NC(=O)OCc1ccccc1 [Example 85, Benzyloxycarbonyl-Asn-(2S,3S)-AHPBA-Pro-NH--CH(CH3)2] | 10.0
31 | CC(C)(C)NC(=O)[C@@H]1CCCN1C(=O)[C@@H](O)[C@H](Cc1ccccc1)NC(=O)[C@H](CS(C)(=O)=O)NC(=O)OCc1cccc2ccccc12 [Example 90, 1-Naphthylmethyloxycarbonyl-Msa-(2S,3S)-AHPBA-Pro-NH-tBu] | 1.5
32 | PhCH2 -O--CO-Asn-(2S,3S)-AHPBA-Pro-NH--CH2 --C6 H11 [Example 49] | 51.9
33 | NC(=O)C[C@H](NC(=O)OCc1ccccc1)C(=O)N[C@@H](Cc1ccccc1)[C@H](O)C(=O)N1CCC[C@H]1C(=O)NC1CCCCC1 [Example 84, Benzyloxycarbonyl-Asn-(2S,3S)-AHPBA-Pro-NH--C6 H11] | 9.6
34 | Benzyloxycarbonyl-Val-(2R,3S)-AHPBA-Phe-Val-NH--CH2 --CH(CH3)2 [Example 53] | 83.4
35 | Benzyloxycarbonyl-Asn-(2S,3S)-AHPBA-Pro-NH-tAmyl [Example 87] | 5.8
36 | CC(C)(C)NC(=O)[C@@H]1CCCN1C(=O)[C@H](O)[C@H](Cc1ccccc1)NC(=O)[C@H](CC(N)=O)NC(=O)OCc1ccccc1 [Example 56, Benzyloxycarbonyl-Asn-(2R,3S)-AHPBA-Pro-NH-tBu] | 95.1
37 | Benzyloxycarbonyl-Asn-(2S,3S)-AHPBA-Thz-NH-tBu [Example 82] | 1.3
38 | 1-Naphthoxyacetyl-Msa-(2S,3S)-AHPBA-Thz-NH-chex-ol [Example 158] | < 10
39 | CC[C@H](C)[C@H](NC(=O)[C@@H]1CCCN1C(=O)[C@@H](O)[C@H](Cc1ccccc1)NC(=O)[C@H](CO)NC(=O)Cc1ccccc1)C(=O)N[C@H](C(N)=O)C(C)C [Example 20, Phenylacetyl-Ser-(2S,3S)-AHPBA-Pro-Ile-Val-NH2] (PhAc-S[X1]PIV-NH2) | 42.8
40 | Benzyloxycarbonyl-Asn-(2S,3S)-AHPBA-Pro-Ile-NH--CH2 --C6 H11 [Example 32] | 4.0
41 | CC(C)(C)NC(=O)[C@@H]1CCCN1C(=O)[C@@H](O)[C@H](Cc1ccccc1)NC(=O)[C@H](CC(N)=O)NC(=O)OCc1ccccc1 [Example 55, Benzyloxycarbonyl-Asn-(2S,3S)-AHPBA-Pro-NH-tBu] | 3.5
42 | Benzyloxycarbonyl-Asn-(2S,3S)-AHPBA-Pro-Aib-NH2 [Example 93] | < 10
43 | Thiophenecarbonyl-Asn-(2S,3S)-AHPBA-Pro-Ile-Val-NH2 [Example 67] | 4.9

Same assay, conditions: inhibitor 1 mM

Row | Compound | Residual Activity (%)
44 | CC[C@H](C)[C@H](NC(=O)[C@@H]1CCCN1C(=O)[C@@H](O)[C@H](Cc1ccccc1)NC(=O)[C@H](CO)NC(=O)Cc1ccccc1)C(=O)N[C@H](C(N)=O)C(C)C [Example 20, Phenylacetyl-Ser-(2S,3S)-AHPBA-Pro-Ile-Val-NH2] (PhAc-S[X1]PIV-NH2) | 2.8

Each compound was assayed against recombinant HIV protease (Human immunodeficiency virus type 1 group M subtype B, UniProt P12497). Details: inhibitor 5 μM (final concentration); 2.0 μg enzyme.
Description: as §1

Row | Compound | residual enzymic activity [%]
45 | Benzyloxycarbonyl-Asn-(2S,3S)-AHPBA-Pro-Ile-NH--CH2 --C6 H11 [Example 32] | 11.0
